Reference: PubChem BioAssay (NCI)
“And” between values parts separate entries of the source, which are not always exact repeats. Equal entries are not always repeated.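 Five concentrations, 48 hours, 96-well plates. GI50 marks 50% less growth. TGI marks complete inhibition of growth.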

Columns and labels:
Assay in all cases: NCI-60 cell line screen, 48 h
[1] = tested on: SN12C renal
[2] = tested on: UACC-62 melanoma
[3] = tested on: NCI-H226 lung
[4] = tested on: OVCAR-3 ovarian
[5] = tested on: HT29 colon
[6] = tested on: U251 CNS
[7] = tested on: SK-MEL-5 melanoma
[8] = tested on: OVCAR-4 ovarian
[9] = tested on: A498 renal
[10] = tested on: NCI-H460 lung

`Cc1ccc([Se](=C(C(=O)c2ccccc2)C(=O)c2ccccc2)c2ccc(C)cc2)cc1` showed a TGI [1] of 36.7 µM, a TGI [2] of 51.5 µM and a TGI [3] of 56.7 µM. The TGI [4] was 74.1 µM, the TGI [5] was 35.2 µM and the TGI [6] was 68.2 µM. The TGI [7] was 37.2 µM, the TGI [8] was 50.1 µM and the TGI [9] was 49 µM. The TGI [10] was > 100 µM.

For `Cc1ccccc1C1=C(c2cn(C)c3ccccc23)C(=O)NC1=O`, the GI50 [1] was > 22.7 µM, the TGI [1] was > 25 µM and the GI50 [2] was > 20.5 µM. The TGI [2] was > 25 µM, the GI50 [3] was 11.6 µM and the TGI [3] was > 25 µM. For the same compound, the GI50 [4] was 10.8 µM, the TGI [4] was > 25 µM and the GI50 [5] was 12.1 µM. For the same compound, the TGI [5] was > 25 µM, the GI50 [6] was 13.2 µM and the TGI [6] was > 25 µM. The GI50 [7] was 16 µM, the TGI [7] was > 25 µM and the GI50 [8] was > 21.1 µM. The TGI [8] was > 25 µM, the GI50 [9] was 6.52 µM and the TGI [9] was 20.7 µM. The GI50 [10] was 14.3 µM and the TGI [10] was > 25 µM.

With `COc1cccc(C=O)c1C(=O)c1cc(O)ccc1O` the TGI [1] was > 100 µM, the TGI [2] was > 100 µM and the TGI [3] was > 100 µM. For the same compound, the TGI [4] was 45.5 µM, the TGI [5] was > 76.3 µM and the TGI [6] was > 100 µM. The TGI [7] was > 100 µM, the TGI [8] was 35.7 µM and the TGI [9] was > 63.7 µM. For the same compound, the TGI [10] was > 100 µM.

`CS(=O)(=O)CCNCc1ccc(-c2ccc3ncnc(Nc4ccc(OCc5cccc(F)c5)c(Cl)c4)c3c2)o1` was tested, and the GI50 [1] was > 10 µM and 9.1 µM, the TGI [1] was > 10 µM and > 100 µM and 36.2 µM and the GI50 [2] was > 10 µM and 6.68 µM and 9.22 µM. The TGI [2] was > 10 µM and > 100 µM and 23.1 µM, the GI50 [3] was > 10 µM and > 100 µM and 25 µM and the TGI [3] was > 10 µM and > 100 µM and 86.7 µM. For the same compound, the GI50 [4] was > 10 µM and 3.54 µM and 8.01 µM, the TGI [4] was > 10 µM and 52.6 µM and 24.2 µM and the GI50 [5] was 7.36 µM and 2.2 µM. The TGI [5] was > 10 µM and 15.8 µM, the GI50 [6] was > 10 µM and 6.7 µM and 9.36 µM and the TGI [6] was > 10 µM and > 100 µM and 24.9 µM. For the same compound, the GI50 [7] was 3.21 µM and 4.34 µM, the TGI [7] was 22.9 µM and 15.4 µM and the GI50 [8] was > 10 µM and 7.8 µM and 6.78 µM. For the same compound, the TGI [8] was > 10 µM and > 86.9 µM and 23.3 µM, the GI50 [9] was 2.32 µM and 1.98 µM and 3.67 µM and the TGI [9] was > 10 µM and > 33 µM and 23.8 µM. The GI50 [10] was > 10 µM and 4.11 µM and 8.98 µM and the TGI [10] was > 10 µM and > 29.3 µM and 48.7 µM.

With `CS(=O)(=O)N1CCC(n2c(=O)c(Oc3ccc(F)cc3F)cc3cnc(NC4CCOCC4)nc32)CC1` the GI50 [1] was > 25 µM, the TGI [1] was > 25 µM and the GI50 [2] was > 25 µM. The TGI [2] was > 25 µM, the GI50 [3] was > 22.5 µM and the TGI [3] was > 25 µM. For the same compound, the GI50 [4] was > 25 µM, the TGI [4] was > 25 µM and the GI50 [5] was > 25 µM. The TGI [5] was > 25 µM, the GI50 [6] was > 25 µM and the TGI [6] was > 25 µM. For the same compound, the GI50 [7] was > 25 µM, the TGI [7] was > 25 µM and the GI50 [8] was > 25 µM. For the same compound, the TGI [8] was > 25 µM, the GI50 [9] was 3.18 µM and the TGI [9] was > 25 µM. For the same compound, the GI50 [10] was > 25 µM and the TGI [10] was > 25 µM.

`O=C(NC(=Nc1ccccc1)SCSC(=Nc1ccccc1)NC(=O)c1ccco1)c1ccco1` was tested, and the TGI [1] was > 100 µM, the TGI [2] was > 100 µM and the TGI [3] was > 100 µM. For the same compound, the TGI [4] was > 100 µM, the TGI [5] was > 100 µM and the TGI [6] was > 100 µM. For the same compound, the TGI [7] was > 100 µM, the TGI [8] was > 100 µM and the TGI [9] was 98.2 µM. The TGI [10] was > 100 µM.

With `COc1ccc(/C=C/C(=O)c2c(O)ccc3c(C)c(C(=O)O)oc23)cc1` the GI50 [1] was 27.5 µM, the TGI [1] was > 100 µM and the GI50 [2] was 55 µM. For the same compound, the TGI [2] was > 100 µM, the GI50 [3] was 45.1 µM and the TGI [3] was > 100 µM. The GI50 [4] was 58.3 µM, the TGI [4] was > 100 µM and the GI50 [5] was > 100 µM. For the same compound, the TGI [5] was > 100 µM, the GI50 [6] was 33.2 µM and the TGI [6] was > 100 µM. For the same compound, the GI50 [7] was 46.4 µM, the TGI [7] was > 100 µM and the GI50 [8] was > 100 µM. The TGI [8] was > 100 µM, the GI50 [9] was 14.9 µM and the TGI [9] was 67.7 µM. The GI50 [10] was 34 µM and the TGI [10] was > 100 µM.

With `CCN1CCC(CC(=O)Nc2n[nH]c3nnc(-c4cccc(F)c4F)cc23)CC1` the GI50 [1] was > 25 µM, the TGI [1] was > 25 µM and the GI50 [2] was > 25 µM. The TGI [2] was > 25 µM, the GI50 [3] was 22.5 µM and the TGI [3] was > 25 µM. For the same compound, the GI50 [4] was 3.65 µM, the TGI [4] was > 25 µM and the GI50 [5] was 12.4 µM. The TGI [5] was > 25 µM, the GI50 [6] was 21.2 µM and the TGI [6] was > 25 µM. For the same compound, the GI50 [7] was > 6.37 µM, the TGI [7] was > 25 µM and the GI50 [8] was > 25 µM. For the same compound, the TGI [8] was > 25 µM, the GI50 [9] was 2.84 µM and the TGI [9] was > 25 µM. For the same compound, the GI50 [10] was > 25 µM and the TGI [10] was > 25 µM.

In the case of `COC(=O)[C@H]1COC(=S)N1C(=O)[C@@H](C)[C@H](O)C(C)C`, the TGI [1] is reported as > 100 µM, the TGI [2] is reported as > 100 µM and the TGI [3] is reported as > 100 µM. For the same compound, the TGI [4] was > 100 µM, the TGI [5] was > 100 µM and the TGI [6] was > 100 µM. For the same compound, the TGI [7] was > 100 µM, the TGI [8] was > 100 µM and the TGI [9] was > 100 µM. The TGI [10] was > 100 µM.

`COC(=O)C12CCC(C)(C)CC1C1=CCC3C4(C)CC(O)C(O)C(C)(C(=O)OC)C4CCC3(C)C1(CO)CC2` (stereo not given) gave a TGI [1] of 33.2 µM, a TGI [2] of 28.9 µM and a TGI [3] of 38.5 µM. The TGI [4] was 31.5 µM, the TGI [5] was 30.1 µM and the TGI [6] was 39.8 µM. The TGI [7] was 41.3 µM, the TGI [8] was 27.8 µM and the TGI [9] was 33.2 µM. For the same compound, the TGI [10] was 31.5 µM.

With `O=[N+]([O-])c1ccc(/C=C/c2nc3ccc(Cl)cc3[nH]2)cc1` the GI50 [1] was 24 µM, the TGI [1] was 91 µM and the GI50 [2] was > 100 µM. For the same compound, the TGI [2] was > 100 µM, the GI50 [3] was 45.9 µM and the TGI [3] was > 100 µM. It also gave a GI50 [4] of 22.4 µM, a TGI [4] of 65.1 µM and a GI50 [5] of 17.8 µM. For the same compound, the TGI [5] was > 100 µM, the GI50 [6] was 16.3 µM and the TGI [6] was 35.3 µM. For the same compound, the GI50 [7] was 31.6 µM, the TGI [7] was > 100 µM and the GI50 [8] was 74 µM. The TGI [8] was > 100 µM, the GI50 [9] was 13.9 µM and the TGI [9] was 44.2 µM. It also gave a GI50 [10] of 17.8 µM and a TGI [10] of 84.9 µM.

`C/C(CCn1[nH]c(=O)ccc1=O)=N\NC(=O)C(N)=O` was tested, and the TGI [1] was > 100 µM, the TGI [2] was > 100 µM and the TGI [3] was > 100 µM. The TGI [4] was > 100 µM, the TGI [5] was > 100 µM and the TGI [6] was > 100 µM. The TGI [7] was > 100 µM, the TGI [8] was > 100 µM and the TGI [9] was > 100 µM. The TGI [10] was > 100 µM.

`Nc1nc(N)c(CCCCc2ccccc2)c(C=O)n1` showed a TGI [1] of 39.1 µM, a TGI [2] of 30.8 µM and a TGI [3] of 53.7 µM. It also gave a TGI [4] of 32.6 µM, a TGI [5] of 26.5 µM and a TGI [6] of 49.6 µM. For the same compound, the TGI [7] was 34.9 µM, the TGI [8] was 70.6 µM and the TGI [9] was > 100 µM. For the same compound, the TGI [10] was > 100 µM.
